Experimental data as given in publication PMC4411097, “Pachymic Acid Inhibits Growth and Induces Apoptosis of Pancreatic Cancer In Vitro and In Vivo by Targeting ER Stress” (PLoS ONE, 2015).

Tested on: MIA PaCa-2 cells
Assay: DNA microarray analysis (Affymetrix Human PrimeView)
Format: cell-based

`C=C(CC[C@@H](C(=O)O)[C@H]1[C@H](O)C[C@@]2(C)C3=C(CC[C@]12C)[C@@]1(C)CC[C@H](OC(C)=O)C(C)(C)[C@@H]1CC3)C(C)C` [PA, Pachymic acid] was tested, and the “Fold-Change (MiaPaca-2 * PA vs. MiaPaca-2 * control), HSPA1B” value (probeset 11729120_x_at) was 1.90, the “Mean (MiaPaca-2 * PA), HSPA1B” value (probeset 11729120_x_at) was 11.15 and the “Fold-Change (MiaPaca-2 * PA vs. MiaPaca-2 * control), ADAMTS4” value (probeset 11730923_x_at) was 2.20. For the same compound, the “Mean (MiaPaca-2 * PA), ADAMTS4” value (probeset 11730923_x_at) was 8.77, the “Fold-Change (MiaPaca-2 * PA vs. MiaPaca-2 * control), RCAN1” value (probeset 11733797_a_at) was 1.68 and the “Mean (MiaPaca-2 * PA), RCAN1” value (probeset 11733797_a_at) was 9.17. For the same compound, the “Fold-Change (MiaPaca-2 * PA vs. MiaPaca-2 * control), SOCS2” value (probeset 11735148_a_at) was 1.78, the “Mean (MiaPaca-2 * PA), SOCS2” value (probeset 11735148_a_at) was 6.08 and the “Fold-Change (MiaPaca-2 * PA vs. MiaPaca-2 * control), C17orf91” value (probeset 11736304_a_at) was 1.70. The “Mean (MiaPaca-2 * PA), C17orf91” value (probeset 11736304_a_at) was 6.00, the “Fold-Change (MiaPaca-2 * PA vs. MiaPaca-2 * control), C17orf91” value (probeset 11736305_x_at) was 1.71 and the “Mean (MiaPaca-2 * PA), C17orf91” value (probeset 11736305_x_at) was 6.44. For the same compound, the “Fold-Change (MiaPaca-2 * PA vs. MiaPaca-2 * control), SERPINB8” value (probeset 11737922_a_at) was 2.08, the “Mean (MiaPaca-2 * PA), SERPINB8” value (probeset 11737922_a_at) was 8.90 and the “Fold-Change (MiaPaca-2 * PA vs. MiaPaca-2 * control), FLJ36031” value (probeset 11739443_a_at) was 1.69. For the same compound, the “Mean (MiaPaca-2 * PA), FLJ36031” value (probeset 11739443_a_at) was 6.38, the “Fold-Change (MiaPaca-2 * PA vs. MiaPaca-2 * control), TNFRSF9” value (probeset 11740393_at) was 2.27 and the “Mean (MiaPaca-2 * PA), TNFRSF9” value (probeset 11740393_at) was 8.01. The “Fold-Change (MiaPaca-2 * PA vs. MiaPaca-2 * control), GBP3” value (probeset 11741911_a_at) was 1.86, the “Mean (MiaPaca-2 * PA), GBP3” value (probeset 11741911_a_at) was 6.08 and the “Fold-Change (MiaPaca-2 * PA vs. MiaPaca-2 * control), CXCL2” value (probeset 11744127_at) was 2.45. The “Mean (MiaPaca-2 * PA), CXCL2” value (probeset 11744127_at) was 10.98, the “Fold-Change (MiaPaca-2 * PA vs. MiaPaca-2 * control), CXCL2” value (probeset 11744128_x_at) was 2.30 and the “Mean (MiaPaca-2 * PA), CXCL2” value (probeset 11744128_x_at) was 11.01. For the same compound, the “Fold-Change (MiaPaca-2 * PA vs. MiaPaca-2 * control), HSPA1A” value (probeset 11744413_x_at) was 2.45, the “Mean (MiaPaca-2 * PA), HSPA1A” value (probeset 11744413_x_at) was 10.47 and the “Fold-Change (MiaPaca-2 * PA vs. MiaPaca-2 * control), SAMD4A” value (probeset 11745209_a_at) was 1.79. For the same compound, the “Mean (MiaPaca-2 * PA), SAMD4A” value (probeset 11745209_a_at) was 6.54, the “Fold-Change (MiaPaca-2 * PA vs. MiaPaca-2 * control), SERPINE1” value (probeset 11746856_a_at) was 1.78 and the “Mean (MiaPaca-2 * PA), SERPINE1” value (probeset 11746856_a_at) was 7.81. For the same compound, the “Fold-Change (MiaPaca-2 * PA vs. MiaPaca-2 * control), UPP1” value (probeset 11747820_x_at) was 1.93, the “Mean (MiaPaca-2 * PA), UPP1” value (probeset 11747820_x_at) was 8.45 and the “Fold-Change (MiaPaca-2 * PA vs. MiaPaca-2 * control), SERPINB8” value (probeset 11748180_a_at) was 2.13. The “Mean (MiaPaca-2 * PA), SERPINB8” value (probeset 11748180_a_at) was 10.10, the “Fold-Change (MiaPaca-2 * PA vs. MiaPaca-2 * control), UPP1” value (probeset 11748775_a_at) was 1.75 and the “Mean (MiaPaca-2 * PA), UPP1” value (probeset 11748775_a_at) was 10.33. The “Fold-Change (MiaPaca-2 * PA vs. MiaPaca-2 * control), FOS” value (probeset 11749291_a_at) was 1.74, the “Mean (MiaPaca-2 * PA), FOS” value (probeset 11749291_a_at) was 6.87 and the “Fold-Change (MiaPaca-2 * PA vs. MiaPaca-2 * control), GBP1” value (probeset 11749773_x_at) was 1.92. The “Mean (MiaPaca-2 * PA), GBP1” value (probeset 11749773_x_at) was 5.41, the “Fold-Change (MiaPaca-2 * PA vs. MiaPaca-2 * control), CYR61” value (probeset 11749905_a_at) was 2.32 and the “Mean (MiaPaca-2 * PA), CYR61” value (probeset 11749905_a_at) was 9.84. For the same compound, the “Fold-Change (MiaPaca-2 * PA vs. MiaPaca-2 * control), HSPA1A /// HSPA1B” value (probeset 11750411_x_at) was 2.09, the “Mean (MiaPaca-2 * PA), HSPA1A /// HSPA1B” value (probeset 11750411_x_at) was 10.73 and the “Fold-Change (MiaPaca-2 * PA vs. MiaPaca-2 * control), MIR17HG” value (probeset 11752442_a_at) was 1.88. For the same compound, the “Mean (MiaPaca-2 * PA), MIR17HG” value (probeset 11752442_a_at) was 6.16, the “Fold-Change (MiaPaca-2 * PA vs. MiaPaca-2 * control), GBP1” value (probeset 11752931_x_at) was 1.83 and the “Mean (MiaPaca-2 * PA), GBP1” value (probeset 11752931_x_at) was 5.47. The “Fold-Change (MiaPaca-2 * PA vs. MiaPaca-2 * control), EGR1” value (probeset 11752940_a_at) was 1.69, the “Mean (MiaPaca-2 * PA), EGR1” value (probeset 11752940_a_at) was 10.59 and the “Fold-Change (MiaPaca-2 * PA vs. MiaPaca-2 * control), DUSP1” value (probeset 11752993_a_at) was 1.78. For the same compound, the “Mean (MiaPaca-2 * PA), DUSP1” value (probeset 11752993_a_at) was 7.26, the “Fold-Change (MiaPaca-2 * PA vs. MiaPaca-2 * control), TNFSF4” value (probeset 11753073_a_at) was 1.71 and the “Mean (MiaPaca-2 * PA), TNFSF4” value (probeset 11753073_a_at) was 5.89. For the same compound, the “Fold-Change (MiaPaca-2 * PA vs. MiaPaca-2 * control), SLC3A2” value (probeset 11753435_x_at) was 1.69, the “Mean (MiaPaca-2 * PA), SLC3A2” value (probeset 11753435_x_at) was 8.06 and the “Fold-Change (MiaPaca-2 * PA vs. MiaPaca-2 * control), IL8” value (probeset 11754026_a_at) was 2.84. The “Mean (MiaPaca-2 * PA), IL8” value (probeset 11754026_a_at) was 11.16, the “Fold-Change (MiaPaca-2 * PA vs. MiaPaca-2 * control), CXCL1” value (probeset 11754114_a_at) was 2.46 and the “Mean (MiaPaca-2 * PA), CXCL1” value (probeset 11754114_a_at) was 11.01. For the same compound, the “Fold-Change (MiaPaca-2 * PA vs. MiaPaca-2 * control), HBEGF” value (probeset 11755981_a_at) was 1.90, the “Mean (MiaPaca-2 * PA), HBEGF” value (probeset 11755981_a_at) was 4.80 and the “Fold-Change (MiaPaca-2 * PA vs. MiaPaca-2 * control), HSPA6 /// HSPA7” value (probeset 11757367_s_at) was 19.93. The “Mean (MiaPaca-2 * PA), HSPA6 /// HSPA7” value (probeset 11757367_s_at) was 9.17, the “Fold-Change (MiaPaca-2 * PA vs. MiaPaca-2 * control), NFKBIZ” value (probeset 11757513_at) was 2.08 and the “Mean (MiaPaca-2 * PA), NFKBIZ” value (probeset 11757513_at) was 10.08. The “Fold-Change (MiaPaca-2 * PA vs. MiaPaca-2 * control), DDIT3” value (probeset 11758347_s_at) was 1.70, the “Mean (MiaPaca-2 * PA), DDIT3” value (probeset 11758347_s_at) was 7.10 and the “Fold-Change (MiaPaca-2 * PA vs. MiaPaca-2 * control), MIR17HG” value (probeset 11758429_s_at) was 1.80. The “Mean (MiaPaca-2 * PA), MIR17HG” value (probeset 11758429_s_at) was 4.78, the “Fold-Change (MiaPaca-2 * PA vs. MiaPaca-2 * control), TNFSF18” value (probeset 11759254_at) was 1.84 and the “Mean (MiaPaca-2 * PA), TNFSF18” value (probeset 11759254_at) was 8.90. For the same compound, the “Fold-Change (MiaPaca-2 * PA vs. MiaPaca-2 * control), NCRNA00275” value (probeset 11759550_at) was 1.82, the “Mean (MiaPaca-2 * PA), NCRNA00275” value (probeset 11759550_at) was 7.61 and the “Fold-Change (MiaPaca-2 * PA vs. MiaPaca-2 * control), SAT1” value (probeset 11760200_a_at) was 1.75. The “Mean (MiaPaca-2 * PA), SAT1” value (probeset 11760200_a_at) was 6.19, the “Fold-Change (MiaPaca-2 * PA vs. MiaPaca-2 * control), EBNA1BP2” value (probeset 11760295_at) was 1.73 and the “Mean (MiaPaca-2 * PA), EBNA1BP2” value (probeset 11760295_at) was 4.62. For the same compound, the “Fold-Change (MiaPaca-2 * PA vs. MiaPaca-2 * control), GRAMD1B” value (probeset 11762010_a_at) was 1.80, the “Mean (MiaPaca-2 * PA), GRAMD1B” value (probeset 11762010_a_at) was 7.49 and the “Fold-Change (MiaPaca-2 * PA vs. MiaPaca-2 * control), CASP1” value (probeset 11763186_at) was 1.70. The “Mean (MiaPaca-2 * PA), CASP1” value (probeset 11763186_at) was 5.56, the “Fold-Change (MiaPaca-2 * PA vs. MiaPaca-2 * control), IL8” value (probeset 11763226_x_at) was 2.95 and the “Mean (MiaPaca-2 * PA), IL8” value (probeset 11763226_x_at) was 11.12. For the same compound, the “Fold-Change (MiaPaca-2 * PA vs. MiaPaca-2 * control), CXCL1 /// CXCL2” value (probeset 11763250_x_at) was 2.26, the “Mean (MiaPaca-2 * PA), CXCL1 /// CXCL2” value (probeset 11763250_x_at) was 10.74 and the “Fold-Change (MiaPaca-2 * PA vs. MiaPaca-2 * control), GRAMD1B” value (probeset 11763323_x_at) was 1.71. The “Mean (MiaPaca-2 * PA), GRAMD1B” value (probeset 11763323_x_at) was 6.75.
